Measured values: publication PMC9321663, “The DevTox Germ Layer Reporter Platform: An Assay Adaptation of the Human Pluripotent Stem Cell Test” (Toxics, 2022)
Where two headings read alike, the source gives them in different places.

Columns and labels:
[1] = test system: SOX17 (endoderm marker) in RUES2-GLR cells; experiment: DevTox GLR-Endo assay: decrease in percent SOX17-positive cells (AEID 3094, Sox17_dn); settings: for Hit Call: Table S2, SOX17-positive cells, cutoff 3*bmad; for DevTox-GLR Endo ACC: activity concentration at cutoff, SOX17-positive cells; for HIT−CALL: tcpl plot AEID3094, COFF 20.3; for hit call designation (in words): DevTox GLR-Endo prediction against developmental toxicant classification
Description: (§1) The total test chemical incubation period was 48 h.
(§2) Assay plate controls included non-differentiated pluripotent cells maintained in complete Essential 8 Flex medium (baseline control), endoderm differentiated cells (differentiation control), endoderm differentiated cells treated with DMSO (0.2%) (solvent control), and TGF-ß receptor inhibitor SB431542 (1 µM)-treated cells (developmental toxicant-positive control) (Figure S3). All experiments were completed with a minimum of four biological replicates (n = 4).
(§3) (Supplementary Materials).

in vitro = settings: human
Description: as §1, §2, §3

RUES2-GLR cells = experiment: DevTox GLR-Endo assay: decrease in total cell count, cytotoxicity (AEID 3098, CellCount_dn); settings: for Emax: Homo sapiens, read-out: Cell Count % Max Inhibition
Description: as §1, §2, §3

[2] = test system: SOX17 (endoderm marker) in RUES2-GLR cells; experiment: DevTox GLR-Endo assay: increase in percent SOX17-positive cells (AEID 3093, Sox17_up); type: cell-based, human; design: tp (winning model): unit not given here; settings: for Emax: Homo sapiens; for HIT−CALL: tcpl plot AEID3093, COFF 20.3
Description: as §1, §3

H9 human ESC line = settings: cited from earlier work
[3] = cited from earlier work; for Development Toxicant Classification: Table S2; for Classification: developmental toxicant classification (Teratogen / Non-Teratogen) of reference and training chemicals, ref DOI per chemical: 10.1093/toxsci/kft239, 10.1093/toxsci/kfaa014, 10.1177/026119290203000204, 10.1038/s41598-020-59542-x; for DT Class.: developmental toxicant classification
[4] = test system: SOX2 (ectoderm and pluripotency marker) in RUES2-GLR cells; experiment: DevTox GLR-Endo assay: increase in percent SOX2-positive cells (AEID 3095, Sox2_up); settings: for AC50 / Emax: Homo sapiens; for AC50: read-out: ga (winning model); for Emax: read-out: tp (winning model); for MAX_MEAN: tcpl plot AEID3095, maximum mean response; for MAX_MED: tcpl plot AEID3095, maximum median response;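 on all read-outs here: cells exposed to test chemicals for 48 h in total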
[5] = test system: BRA (mesoderm marker) in RUES2-GLR cells; experiment: DevTox GLR-Endo assay: increase in percent BRA-positive cells (AEID 3096, Bra_up); type: cell-based, human; settings: for HIT−CALL: tcpl plot AEID3096, COFF 0.774; for MAX_MEAN: tcpl plot AEID3096, maximum mean response; for MAX_MED: tcpl plot AEID3096, maximum median response
Description: as §1, §3

[6] = test system: SOX17 in H9 human ESC line; settings: SOX17 half-maximal inhibition concentration; read-out: hPST IC50; cited from earlier work
[7] = Homo sapiens, 48 h, read-out: DevTox-GLR Endo AC50 (µM), SOX17 half-maximal activity concentration, 48 h exposure
[8] = Homo sapiens, read-out: DevTox % Max Inhibition
[9] = Homo sapiens, read-out: MAX_MEAN
[10] = Homo sapiens, read-out: MAX_MED
[11] = Homo sapiens, read-out: ga (winning model), tcpl plot AEID3094, gain parameter of winning curve fit (log concentration, µM axis), hit calls only (converted)
[12] = Homo sapiens, read-out: tp (winning model)
[13] = tcpl plot AEID3093, maximum mean response, read-out: MAX_MEAN
[14] = tcpl plot AEID3093, maximum median response, read-out: MAX_MED
[15] = cytotoxicity half-maximal concentration
[16] = chemicals common with quickPredict
[17] = Table S2, percent SOX17-positive cells, 48 h exposure
[18] = Homo sapiens, read-out: maximum observed effect level class (% max inhibition)

SMILES | Emax [1, 8] | Emax [1, 9] | Emax [1, 10] | AC50 [1, 11] | Emax [1, 12] | Hit Call [1] | HIT−CALL [1] | Emax (RUES2-GLR cells) | Cell Count ACC (RUES2-GLR cells; human, 48 h) | Emax [2, 13] | Emax [2, 14] | HIT−CALL [2] | Development Toxicant Classification [3] | Classification [3] | AC50 [4] | Emax [4] | MAX_MEAN [4] | MAX_MED [4] | DevTox ACC [1, 17] | HIT−CALL [5] | other results
CC/C(=C(/CC)c1ccc(O)cc1)c1ccc(O)cc1 [Diethylstilbestrol] | 101% | 101% | 101% | 0.644 µM | 101% | Positive | 1 | 95.7% | 0.5959 µM | 6.93% | 6.73% | 0 | Positive | Teratogen | 2.13 µM | 3.84% | 6.09 Percent Activity | 4.84 Percent Activity | – | – | AC50 [1, 7]: 0.64 µM; DevTox-GLR Endo ACC ([1]; 48 h exposure): 0.54 µM; CC50 at 48 h (in vitro): 0.71 µM; DevTox-GLR Endo CC (RUES2-GLR cells; human, 48 h): 0.60 µM; hPST TC50 (H9 human ESC line; [15]): 4.4 µM; hPST TC50 (H9 human ESC line; hPST cytotoxicity): 4.4 µM; DT Class. ([3]; chemicals common with hPST): Pos; DT Class. [3, 16]: Pos
COc1cccc2c1C(=O)c1c(O)c3c(c(O)c1C2=O)C[C@@](O)(C(=O)CO)C[C@@H]3O[C@H]1C[C@H](N)[C@H](O)[C@H](C)O1 [Doxorubicin] | – | – | – | 0.00186 µM | – | Positive | 1 | 93.9% | 0.001329 µM | 50.4% | 51.7% | 1 | Positive | – | 0.64 µM | 19.8% | 9.13 Percent Activity | 8.86 Percent Activity | 0.001242 µM | – | AC50 [1, 7]: 0.0019 µM; CC50 at 48 h (in vitro): 0.0033 µM; tp (winning model) ([2]; tcpl plot AEID3093, top of winning curve fit, hit calls only): 48.7; hPST TC50 (H9 human ESC line; [15]): <0.3 µM; hPST TC50 (H9 human ESC line; hPST cytotoxicity): < 0.3 µM; DT Class. ([3]; chemicals common with hPST): Pos
COc1cc2ncnc(Nc3ccc(F)c(Cl)c3)c2cc1OCCCN1CCOCC1 [Gefitinib] | – | 102% | 101% | 5.75 µM | 101% | – | – | – | 5.08 µM | 10.5% | 7.83% | 0 | – | – | 6.35 µM | 3.17% | 5.99 Percent Activity | 4.85 Percent Activity | 4.584 µM | – | AC50 [1, 7]: 5.75 µM; CC50 at 48 h (in vitro): 6.6 µM; hPST TC50 (H9 human ESC line; [15]): 10 µM; hPST TC50 (H9 human ESC line; hPST cytotoxicity): 10 µM
CN1CCN2c3ccccc3Cc3ccccc3C2C1 (centres unmarked) [Mianserin] | 101% | 101% | 101% | 34.7 µM | 122% | Positive | 1 | 97.7% | 18.6008 µM | 2.7% | 3.98% | 0 | Positive | Teratogen | 85.1 µM | 13.7% | 4.94 Percent Activity | 5.45 Percent Activity | – | – | DevTox ACC ([1]; 48 h): 13.5618 µM; AC50 [1, 7]: 34.9 µM; CC50 at 48 h (in vitro): 33.6 µM; hPST TC50 (H9 human ESC line; [15]): 60 µM; hPST TC50 (H9 human ESC line; hPST cytotoxicity): 60 µM; DT Class. ([3]; chemicals common with hPST): Pos
Nc1cccc2c1C(=O)N(C1CCC(=O)NC1=O)C2=O (centres unmarked) [Pomalidomide] | 95.9% | 95.3% | 95.9% | 0.0661 µM | 94% | Positive | 1 | 37.2% | – | 8.72% | 7.3% | 0 | Positive | Teratogen | 148 µM | 88.9% | 62.1 Percent Activity | 67.4 Percent Activity | 0.01911 µM | 0 | effect on SOX17-positive cells (in words) ([1]; 48 h exposure during directed endoderm differentiation): significant reductions in the SOX17-positive sub-population; IC50 ([1]; Homo sapiens, 48 h): 0.05 µM; % Max Inhibition ([1]; maximum inhibition of SOX17-positive cells, reference chemical testing, 48 h exposure): 81%; Cell Count ACC (RUES2-GLR cells; Table S2, 48 h exposure): 0.27 µM; effect on cell counts (in words) (RUES2-GLR cells; reference chemical testing, increasing concentrations): cell counts remained constant; MAX_MEAN [5]: 0.865 Percent Activity; MAX_MED [5]: 0.894 Percent Activity; Developmental Toxicant Classification ([3]; reference chemicals): Positive
CC1=C2C[C@H]3[C@@H](CC=C4C[C@@H](O)CC[C@@]43C)[C@@H]2CC[C@]12O[C@@H]1C[C@H](C)CN[C@H]1[C@H]2C [Cyclopamine] | 22.7% | 34.8% | 22.7% | – | – | Negative | 0 | 9.2% | – | – | – | 0 | Positive | Teratogen | – | – | 5.31 Percent Activity | 0.885 Percent Activity | >200 µM | 1 | hit call designation (in words) [1]: borderline calls; Emax [1, 18]: 20 to 80%; Cell Count ACC (RUES2-GLR cells; Table S2, 48 h exposure): >200 µM; Emax ([2]; read-out: MAX_MEAN): 3.34%; Emax ([2]; read-out: MAX_MED): 3.36%; MAX_MEAN [5]: 4.76 Percent Activity; MAX_MED [5]: 1.9 Percent Activity; DT Class. [3, 16]: Pos; HIT−CALL [4]: 0
CCCc1cc(=O)[nH]c(=S)[nH]1 | 16.6% | 14.7% | 16.6% | – | – | Negative | 0 | 12.9% | >200 µM | 7.44% | 8.97% | 0 | – | Teratogen | – | – | 0.595 Percent Activity | 0.601 Percent Activity | >200 µM | 1 | hit call designation (in words) [1]: false negative; Emax [1, 18]: 0 to 20%; MAX_MEAN [5]: 0.944 Percent Activity; MAX_MED [5]: 0.969 Percent Activity; DT Class. [3, 16]: Pos
O=C1NC(=O)C(c2ccccc2)(c2ccccc2)N1 | 21% | 19.1% | 21% | 191 µM | 32.6% | Positive | 1 | 22.6% | 191.824 µM | 11.2% | 11.7% | 0 | Positive | Teratogen | – | – | 0.502 Percent Activity | 0.532 Percent Activity | 201.562 µM | 0 | DevTox-GLR Endo ACC ([1]; 48 h exposure): 201.56 µM; DevTox-GLR Endo CC (RUES2-GLR cells; human, 48 h): 191.82 µM; MAX_MEAN [5]: 0.943 Percent Activity; MAX_MED [5]: 0.909 Percent Activity; DT Class. [3, 16]: Pos
CC(C)Cc1ccc(C(C)C(=O)O)cc1 (centres unmarked) [Ibuprofen] | 23.9% | 24.3% | 23.9% | – | 42.6% | Positive | 1 | 22.2% | 122.424 µM | 11.6% | 11.9% | 0 | – | – | – | – | 0.944 Percent Activity | 0.561 Percent Activity | – | – | IC50 [6]: > 200 µM
Nc1nc2c(ncn2COCCO)c(=O)[nH]1 [Acyclovir] | 7.79% | 8.36% | 7.79% | – | – | Negative | 0 | 7.77% | >200 µM | 6.68% | 7.67% | 0 | – | – | – | – | 2.09 Percent Activity | 0.473 Percent Activity | – | 1 | MAX_MEAN [5]: 0.981 Percent Activity; MAX_MED [5]: 1.09 Percent Activity; IC50 [6]: > 200 µM
